pIC50: −log10 of the molar value.
Tests used:
[1] = molecular target: T1, hABL1-p (Homo sapiens, UniProt P00519); assay: KINOMEscan; type: binding
T1 construct: purchased DiscoverX (KINOMEscan platform)

[2] = molecular target: T2, hAKT2 (Homo sapiens, UniProt P31751); assay: KINOMEscan; type: binding
T2 construct: purchased DiscoverX

[3] = molecular target: T3, hALK (Homo sapiens, UniProt Q9UM73); assay: KINOMEscan; type: binding
T3 construct: purchased DiscoverX

[4] = molecular target: T4, hAMPK-alpha1 (Homo sapiens, UniProt Q13131); assay: KINOMEscan; type: binding
T4 construct: purchased DiscoverX

[5] = molecular target: T5, hBRAF (Homo sapiens, UniProt P15056); assay: KINOMEscan; type: binding
T5 construct: purchased DiscoverX

[6] = molecular target: T6, hCAMKK2 (Homo sapiens, UniProt Q96RR4); assay: KINOMEscan; type: binding
T6 construct: purchased DiscoverX

[7] = molecular target: T7, hCHEK1 (Homo sapiens, UniProt O14757); assay: KINOMEscan; type: binding
T7 construct: purchased DiscoverX

[8] = molecular target: T8, hCSK (Homo sapiens, UniProt P41240); assay: KINOMEscan; type: binding
T8 construct: purchased DiscoverX (KINOMEscan platform)

[9] = molecular target: T9, hDAPK2 (Homo sapiens, UniProt Q9UIK4); assay: KINOMEscan; type: binding
T9 construct: purchased DiscoverX (KINOMEscan platform)

[10] = molecular target: T10, hEGFR (Homo sapiens, UniProt P00533); assay: KINOMEscan; type: binding
T10 construct: purchased DiscoverX

[11] = molecular target: T11, hEGFR(L747-E749del, A750P) (Homo sapiens, UniProt P00533, A750P/DEL747-749); assay: KINOMEscan; type: binding
T11 construct: purchased DiscoverX

[12] = molecular target: T12, hEGFR(L858R) (Homo sapiens, UniProt P00533, L858R); assay: KINOMEscan; type: binding
T12 construct: purchased DiscoverX

[13] = molecular target: T13, hGRK1 (Homo sapiens, UniProt Q15835); assay: KINOMEscan; type: binding
T13 construct: purchased DiscoverX

[14] = molecular target: T14, hINSRR (Homo sapiens, UniProt P14616); assay: KINOMEscan; type: binding
T14 construct: purchased DiscoverX (KINOMEscan panel)

[15] = molecular target: T15, hKIT (Homo sapiens, UniProt P10721); assay: KINOMEscan; type: binding
T15 construct: purchased DiscoverX (KINOMEscan panel)

[16] = molecular target: T16, hLRRK2(G2019S) (Homo sapiens, UniProt Q5S007, G2019S); assay: KINOMEscan; type: binding
T16 construct: purchased DiscoverX (KINOMEscan platform)

[17] = molecular target: T17, hMAP3K15 (Homo sapiens, UniProt Q6ZN16); assay: KINOMEscan; type: binding
T17 construct: purchased DiscoverX (KINOMEscan platform)

[18] = molecular target: T18, hPIP5K1A (Homo sapiens, UniProt Q99755); assay: KINOMEscan; type: binding
T18 construct: purchased DiscoverX

[19] = molecular target: T19, hPYK2 (Homo sapiens, UniProt Q14289); assay: KINOMEscan; type: binding
T19 construct: purchased DiscoverX

[20] = molecular target: T20, hRSK3(Kin.Dom.2-C-term) (Homo sapiens, UniProt Q15349); assay: KINOMEscan; type: binding
T20 construct: hRSK3(Kin.Dom.2-C-term); purchased DiscoverX (KINOMEscan platform)

[21] = molecular target: T21, hSRPK3 (Homo sapiens, UniProt Q9UPE1); assay: KINOMEscan; type: binding
T21 construct: purchased DiscoverX (KINOMEscan platform)

[22] = molecular target: T22, hSYK (Homo sapiens, UniProt P43405); assay: KINOMEscan; type: binding
T22 construct: purchased DiscoverX (KINOMEscan platform)

[23] = molecular target: T23, hTAK1 (Homo sapiens, UniProt O43318); assay: KINOMEscan; type: binding
T23 construct: purchased DiscoverX

[24] = molecular target: T24, hTIE2 (Homo sapiens, UniProt Q02763); assay: KINOMEscan; type: binding
T24 construct: purchased DiscoverX

[25] = molecular target: T25, hTRKA (Homo sapiens, UniProt P04629); assay: KINOMEscan; type: binding
T25 construct: purchased DiscoverX

[26] = molecular target: T26, hTYRO3 (Homo sapiens, UniProt Q06418); assay: KINOMEscan; type: binding
T26 construct: purchased DiscoverX

[27] = molecular target: T27, hLXRα (Homo sapiens, UniProt Q13133); assay: Nuclear hormone receptor assay (Eurofins-CEREP); details: read-out: Relative IC50
T27 construct: Eurofins-CEREP

[28] = molecular target: T28, hRARα (Homo sapiens, UniProt P10276); assay: Nuclear hormone receptor assay (Eurofins-CEREP); details: read-out: Relative IC50
T28 construct: Eurofins-CEREP

[29] = molecular target: hD1 (Homo sapiens, UniProt P21728); assay: cAMP Agonist (Eurofins-CEREP); details: @ 10 μM
[30] = molecular target: T29, hADORA3 (Homo sapiens, UniProt P0DMS8); assay: β-arrestin Antagonist (Eurofins-CEREP); details: read-out: % Effect, Inhibition
T29 sequence (P0DMS8 1-318): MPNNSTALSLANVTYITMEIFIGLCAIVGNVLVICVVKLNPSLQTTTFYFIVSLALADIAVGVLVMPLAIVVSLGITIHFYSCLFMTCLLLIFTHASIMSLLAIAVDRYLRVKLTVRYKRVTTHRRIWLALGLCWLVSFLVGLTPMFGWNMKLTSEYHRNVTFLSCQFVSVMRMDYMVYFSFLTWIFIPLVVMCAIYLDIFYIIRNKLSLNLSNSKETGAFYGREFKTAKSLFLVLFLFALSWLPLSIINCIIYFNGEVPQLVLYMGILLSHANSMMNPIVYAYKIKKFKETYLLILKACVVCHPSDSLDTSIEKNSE

[31] = molecular target: T30, hM2 (Homo sapiens, UniProt P08172); assay: β-arrestin Potentiation (Eurofins-CEREP); details: @ 10 μM
T30 sequence (P08172 1-466): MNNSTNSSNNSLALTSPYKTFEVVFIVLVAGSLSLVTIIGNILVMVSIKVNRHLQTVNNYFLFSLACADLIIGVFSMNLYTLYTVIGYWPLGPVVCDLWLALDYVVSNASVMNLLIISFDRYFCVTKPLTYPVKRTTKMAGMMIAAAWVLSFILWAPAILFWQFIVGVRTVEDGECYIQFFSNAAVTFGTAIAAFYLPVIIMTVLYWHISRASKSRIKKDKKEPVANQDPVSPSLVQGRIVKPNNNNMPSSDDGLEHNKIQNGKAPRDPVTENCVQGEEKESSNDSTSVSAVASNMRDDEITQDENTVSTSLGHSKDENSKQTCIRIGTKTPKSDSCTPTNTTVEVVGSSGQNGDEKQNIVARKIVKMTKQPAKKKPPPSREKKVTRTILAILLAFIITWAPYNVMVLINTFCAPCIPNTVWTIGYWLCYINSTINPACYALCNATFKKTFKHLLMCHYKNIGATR

T28 sequence (P10276 whole entry): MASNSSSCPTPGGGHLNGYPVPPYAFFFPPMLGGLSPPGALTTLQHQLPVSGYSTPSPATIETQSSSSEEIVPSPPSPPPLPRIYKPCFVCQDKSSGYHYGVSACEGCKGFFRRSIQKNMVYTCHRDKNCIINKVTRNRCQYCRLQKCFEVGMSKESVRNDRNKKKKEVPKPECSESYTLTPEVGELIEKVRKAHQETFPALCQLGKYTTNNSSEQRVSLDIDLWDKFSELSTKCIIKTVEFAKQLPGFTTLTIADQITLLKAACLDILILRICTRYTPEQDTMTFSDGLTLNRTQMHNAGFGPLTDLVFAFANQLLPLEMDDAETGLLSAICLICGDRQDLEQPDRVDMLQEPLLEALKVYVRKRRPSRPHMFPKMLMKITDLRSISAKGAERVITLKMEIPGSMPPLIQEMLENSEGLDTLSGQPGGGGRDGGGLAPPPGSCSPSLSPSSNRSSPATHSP
T3 sequence (Q9UM73 19-1620): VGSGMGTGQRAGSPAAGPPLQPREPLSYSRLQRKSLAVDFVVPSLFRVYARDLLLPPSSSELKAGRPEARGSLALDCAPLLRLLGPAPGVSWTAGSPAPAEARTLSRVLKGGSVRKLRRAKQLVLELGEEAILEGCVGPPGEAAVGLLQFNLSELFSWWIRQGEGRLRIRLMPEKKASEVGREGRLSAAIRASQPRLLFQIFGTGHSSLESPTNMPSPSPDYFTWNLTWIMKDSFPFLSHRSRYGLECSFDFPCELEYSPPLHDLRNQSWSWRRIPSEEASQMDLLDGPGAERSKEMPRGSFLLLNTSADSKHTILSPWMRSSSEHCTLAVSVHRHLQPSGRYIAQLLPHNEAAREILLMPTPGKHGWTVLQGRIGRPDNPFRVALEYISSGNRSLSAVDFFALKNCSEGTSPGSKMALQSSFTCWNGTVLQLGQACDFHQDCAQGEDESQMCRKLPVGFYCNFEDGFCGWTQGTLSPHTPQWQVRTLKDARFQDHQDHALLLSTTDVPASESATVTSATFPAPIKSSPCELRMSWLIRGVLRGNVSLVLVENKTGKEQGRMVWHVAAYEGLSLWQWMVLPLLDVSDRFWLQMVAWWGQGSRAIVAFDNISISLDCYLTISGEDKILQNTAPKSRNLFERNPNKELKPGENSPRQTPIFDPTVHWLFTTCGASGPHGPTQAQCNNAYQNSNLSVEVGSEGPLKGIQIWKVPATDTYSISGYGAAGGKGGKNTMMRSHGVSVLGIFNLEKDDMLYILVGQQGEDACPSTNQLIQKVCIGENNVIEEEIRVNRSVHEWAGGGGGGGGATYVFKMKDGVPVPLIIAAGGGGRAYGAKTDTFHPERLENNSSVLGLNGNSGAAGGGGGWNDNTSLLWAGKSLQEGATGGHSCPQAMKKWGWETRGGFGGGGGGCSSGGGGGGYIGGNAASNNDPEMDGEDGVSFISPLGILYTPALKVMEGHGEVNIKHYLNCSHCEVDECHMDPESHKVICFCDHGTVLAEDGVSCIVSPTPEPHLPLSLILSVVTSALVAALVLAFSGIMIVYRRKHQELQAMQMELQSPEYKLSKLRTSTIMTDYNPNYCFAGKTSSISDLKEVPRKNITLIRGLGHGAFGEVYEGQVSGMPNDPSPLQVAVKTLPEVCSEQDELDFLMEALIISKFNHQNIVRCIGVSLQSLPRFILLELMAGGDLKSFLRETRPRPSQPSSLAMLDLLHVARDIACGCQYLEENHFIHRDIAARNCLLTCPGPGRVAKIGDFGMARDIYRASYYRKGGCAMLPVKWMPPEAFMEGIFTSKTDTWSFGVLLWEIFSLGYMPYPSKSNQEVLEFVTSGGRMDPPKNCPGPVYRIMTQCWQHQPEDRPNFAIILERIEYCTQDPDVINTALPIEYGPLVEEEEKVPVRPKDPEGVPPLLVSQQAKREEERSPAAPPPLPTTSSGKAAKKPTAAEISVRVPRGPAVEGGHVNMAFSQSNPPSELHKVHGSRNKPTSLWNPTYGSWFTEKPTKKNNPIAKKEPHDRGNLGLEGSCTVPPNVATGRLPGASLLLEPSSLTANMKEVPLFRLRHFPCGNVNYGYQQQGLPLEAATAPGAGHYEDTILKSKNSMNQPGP
T24 sequence (Q02763 23-1124): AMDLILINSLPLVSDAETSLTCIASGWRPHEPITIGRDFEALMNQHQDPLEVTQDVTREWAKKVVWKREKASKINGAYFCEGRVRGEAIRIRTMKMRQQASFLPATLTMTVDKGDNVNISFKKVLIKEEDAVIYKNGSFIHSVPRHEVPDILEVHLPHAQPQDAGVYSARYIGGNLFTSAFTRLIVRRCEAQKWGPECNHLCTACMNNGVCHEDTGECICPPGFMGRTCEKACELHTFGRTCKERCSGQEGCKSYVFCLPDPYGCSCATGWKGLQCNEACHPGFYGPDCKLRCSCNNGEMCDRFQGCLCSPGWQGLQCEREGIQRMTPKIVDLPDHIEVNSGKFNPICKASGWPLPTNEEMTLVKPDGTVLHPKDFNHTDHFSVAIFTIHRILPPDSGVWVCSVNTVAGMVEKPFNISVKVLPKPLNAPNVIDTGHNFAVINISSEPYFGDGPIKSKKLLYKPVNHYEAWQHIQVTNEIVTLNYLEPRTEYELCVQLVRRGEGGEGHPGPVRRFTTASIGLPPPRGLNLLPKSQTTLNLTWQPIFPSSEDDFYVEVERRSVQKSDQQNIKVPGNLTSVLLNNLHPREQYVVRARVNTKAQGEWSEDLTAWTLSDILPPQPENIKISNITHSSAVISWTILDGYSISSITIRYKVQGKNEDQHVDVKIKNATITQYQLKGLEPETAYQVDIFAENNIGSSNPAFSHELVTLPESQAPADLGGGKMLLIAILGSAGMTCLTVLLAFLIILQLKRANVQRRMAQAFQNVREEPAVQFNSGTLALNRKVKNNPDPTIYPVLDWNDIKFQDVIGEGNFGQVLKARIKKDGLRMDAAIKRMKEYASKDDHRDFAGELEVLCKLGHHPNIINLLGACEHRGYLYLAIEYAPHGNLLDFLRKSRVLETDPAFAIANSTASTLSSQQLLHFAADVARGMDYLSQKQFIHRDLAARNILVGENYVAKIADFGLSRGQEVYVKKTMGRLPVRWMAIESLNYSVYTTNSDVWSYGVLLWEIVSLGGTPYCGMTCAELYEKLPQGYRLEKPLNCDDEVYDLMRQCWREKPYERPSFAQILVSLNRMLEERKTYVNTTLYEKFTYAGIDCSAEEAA
T11 sequence (P00533 with tags, fused parts or gaps DEL747-749/A750P): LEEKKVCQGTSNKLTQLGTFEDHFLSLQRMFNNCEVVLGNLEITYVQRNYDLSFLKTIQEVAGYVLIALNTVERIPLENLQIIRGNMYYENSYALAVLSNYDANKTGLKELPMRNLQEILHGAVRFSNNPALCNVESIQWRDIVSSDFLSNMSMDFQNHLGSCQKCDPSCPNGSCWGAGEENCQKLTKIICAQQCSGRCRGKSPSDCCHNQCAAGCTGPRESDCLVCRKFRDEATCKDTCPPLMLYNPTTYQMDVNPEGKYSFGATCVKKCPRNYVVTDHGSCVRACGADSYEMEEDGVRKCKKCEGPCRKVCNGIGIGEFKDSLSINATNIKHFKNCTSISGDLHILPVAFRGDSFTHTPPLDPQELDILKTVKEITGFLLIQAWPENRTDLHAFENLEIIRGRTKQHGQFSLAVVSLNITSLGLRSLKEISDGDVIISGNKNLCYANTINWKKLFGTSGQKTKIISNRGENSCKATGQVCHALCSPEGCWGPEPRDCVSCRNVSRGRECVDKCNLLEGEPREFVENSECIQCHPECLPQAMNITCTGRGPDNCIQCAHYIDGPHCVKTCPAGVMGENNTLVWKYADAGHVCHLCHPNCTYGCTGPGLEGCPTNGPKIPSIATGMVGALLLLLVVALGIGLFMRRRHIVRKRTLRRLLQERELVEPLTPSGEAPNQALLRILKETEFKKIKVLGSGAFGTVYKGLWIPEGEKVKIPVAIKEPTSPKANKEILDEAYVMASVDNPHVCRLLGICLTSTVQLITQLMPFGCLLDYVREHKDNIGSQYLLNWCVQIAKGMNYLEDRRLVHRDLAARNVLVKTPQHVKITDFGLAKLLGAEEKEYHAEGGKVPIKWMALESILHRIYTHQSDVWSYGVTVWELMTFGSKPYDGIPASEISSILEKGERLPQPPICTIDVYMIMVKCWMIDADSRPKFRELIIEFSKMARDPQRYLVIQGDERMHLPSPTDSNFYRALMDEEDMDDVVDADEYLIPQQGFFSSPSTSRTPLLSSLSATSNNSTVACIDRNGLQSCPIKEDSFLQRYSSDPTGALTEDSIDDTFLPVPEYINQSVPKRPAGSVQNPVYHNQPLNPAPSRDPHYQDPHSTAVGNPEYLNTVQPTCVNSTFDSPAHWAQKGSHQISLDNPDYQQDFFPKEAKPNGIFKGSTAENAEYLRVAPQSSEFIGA
T13 sequence (Q15835 whole entry): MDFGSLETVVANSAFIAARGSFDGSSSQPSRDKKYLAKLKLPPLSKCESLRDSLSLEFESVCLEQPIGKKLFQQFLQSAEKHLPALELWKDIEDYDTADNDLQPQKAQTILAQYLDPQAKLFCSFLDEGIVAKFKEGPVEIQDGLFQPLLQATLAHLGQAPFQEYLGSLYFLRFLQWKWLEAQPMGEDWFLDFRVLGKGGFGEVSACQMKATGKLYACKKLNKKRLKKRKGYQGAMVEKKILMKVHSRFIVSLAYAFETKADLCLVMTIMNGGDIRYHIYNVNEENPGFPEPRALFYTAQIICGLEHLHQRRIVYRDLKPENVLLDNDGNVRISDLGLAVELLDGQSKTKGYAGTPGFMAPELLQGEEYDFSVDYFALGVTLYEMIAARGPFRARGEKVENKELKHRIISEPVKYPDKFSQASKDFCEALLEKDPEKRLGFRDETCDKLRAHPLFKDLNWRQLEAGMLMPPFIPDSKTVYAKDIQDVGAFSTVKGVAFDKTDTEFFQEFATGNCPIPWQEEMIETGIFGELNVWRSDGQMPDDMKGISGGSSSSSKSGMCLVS

`Cc1cn(CCN2CCN(c3ccccc3-c3cc(C#N)cc(C(=O)NCCCN4CCCC4)c3)CC2)c2ccccc12` [LLY-507, 3-cyano-5-{2-[4-[2-(3-methylindol-1-yl)ethyl]piperazin-1-yl]-phenyl}-N-[(3-pyrrolidin-1-yl)propyl]benzamide] gave a pIC50 [1] of less than 4.70, a pIC50 [2] of less than 4.70 and a pIC50 [3] of less than 4.70. The pIC50 [4] was less than 4.70, the pIC50 [5] was less than 4.70 and the pIC50 [6] was less than 4.70. It also gave a pIC50 [7] of less than 4.70, a pIC50 [8] of less than 4.70 and a pIC50 [9] of less than 4.70. The pIC50 [10] was less than 4.70, the pIC50 [11] was less than 4.70 and the pIC50 [12] was less than 4.70. The pIC50 [13] was less than 4.70, the pIC50 [14] was less than 4.70 and the pIC50 [15] was less than 4.70. For the same compound, the pIC50 [16] was less than 4.70, the pIC50 [17] was less than 4.70 and the pIC50 [18] was 4.79. The pIC50 [19] was less than 4.70, the pIC50 [20] was less than 4.70 and the pIC50 [21] was less than 4.70. It also gave a pIC50 [22] of less than 4.70, a pIC50 [23] of less than 4.70 and a pIC50 [24] of less than 4.70. The pIC50 [25] was less than 4.70, the pIC50 [26] was less than 4.70 and the pIC50 [27] was less than 5.00. The pIC50 [28] was less than 5.00, the “% Effect, Stimulation” value [29] was -6.8% and the inhibition at 10 µM [30] was -38.3%. For the same compound, the “% Effect, Potentiation” value [31] was -32.2%.

From paper PMC4447944 (The Journal of Biological Chemistry, 2015)
